Data reported in patent publication US10494378B2, “Fused ring pyrimidine compound, intermediate, and preparation method, composition and use thereof” (GUANGZHOU MAXINOVEL PHARMACEUTICALS CO., LTD., priority 2015, dated 2019).

Assays:
Type in all cases: biochemical
JAK2 kinase = molecular target: T1, JAK2 kinase (Homo sapiens, UniProt O60674); assay: IC50 evaluation assay on JAK2 kinase inhibition (Caliper); conditions: adenosine triphosphate at Km; 1 hour at 28° C.; average of two tests; read-out: IC50 (nM) inhibiting JAK 2 kinase
T1 construct: purchased Carna 08-045
T1 sequence (O60674 whole entry): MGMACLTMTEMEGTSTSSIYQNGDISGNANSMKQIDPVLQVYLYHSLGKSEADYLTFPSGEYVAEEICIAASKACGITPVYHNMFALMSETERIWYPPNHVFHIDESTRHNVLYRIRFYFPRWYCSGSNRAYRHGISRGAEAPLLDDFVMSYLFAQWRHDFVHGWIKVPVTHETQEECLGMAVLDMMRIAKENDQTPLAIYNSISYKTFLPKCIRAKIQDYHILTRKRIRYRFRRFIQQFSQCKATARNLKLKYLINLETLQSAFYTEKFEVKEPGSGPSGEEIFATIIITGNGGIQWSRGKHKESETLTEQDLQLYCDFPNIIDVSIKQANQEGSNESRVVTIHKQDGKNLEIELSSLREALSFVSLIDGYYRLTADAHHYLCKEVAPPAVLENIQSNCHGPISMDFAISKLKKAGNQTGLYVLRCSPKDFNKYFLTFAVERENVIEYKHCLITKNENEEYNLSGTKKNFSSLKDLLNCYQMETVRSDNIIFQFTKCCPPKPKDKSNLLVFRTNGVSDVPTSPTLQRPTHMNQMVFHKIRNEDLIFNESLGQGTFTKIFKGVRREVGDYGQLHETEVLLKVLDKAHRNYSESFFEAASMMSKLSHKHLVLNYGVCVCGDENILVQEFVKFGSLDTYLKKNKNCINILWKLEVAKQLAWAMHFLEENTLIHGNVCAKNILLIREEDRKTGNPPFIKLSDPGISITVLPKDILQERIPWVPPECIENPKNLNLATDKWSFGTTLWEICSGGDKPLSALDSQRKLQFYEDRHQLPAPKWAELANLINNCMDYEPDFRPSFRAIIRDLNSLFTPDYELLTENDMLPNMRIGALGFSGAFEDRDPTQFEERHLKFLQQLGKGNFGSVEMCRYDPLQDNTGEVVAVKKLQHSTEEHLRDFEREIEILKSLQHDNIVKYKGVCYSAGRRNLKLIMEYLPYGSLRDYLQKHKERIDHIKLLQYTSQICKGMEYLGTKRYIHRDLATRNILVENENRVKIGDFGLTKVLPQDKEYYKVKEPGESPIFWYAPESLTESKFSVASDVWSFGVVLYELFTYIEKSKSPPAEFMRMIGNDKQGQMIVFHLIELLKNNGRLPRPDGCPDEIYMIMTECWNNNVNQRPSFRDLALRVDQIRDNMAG
Description: (§1) 1. The compound was dissolved in 100% DMSO, diluted into solutions with appropriate concentration gradients with water according to experimental requirement, and added to a 384-well plate.
(§2) 2. JAK2 kinase (Carna, Cat. No. 08-045, Lot. No. 07CBS-1927) and JAK3 kinase (Carna, Cat. No. 08-046, Lot. No. 08CBS-0371) were diluted to the optimum concentration with the following buffer solution: 50 mM HEPES, pH 7.5, 0.0015% Brij-35, 2 mM DTT. JAK1 kinase (Carna, Cat. No. 08-144, Lot. No. 11CBS-0144D) was diluted to the optimum concentration with the following buffer solution: 25 mM HEPES pH 7.5, 0.01% Brij-35, 2 mM DTT, 0.01M Triton. Transfer to the 384-well plate and incubated with the compound for a period of time.
(§3) 3. […] The substrate of JAK1 was diluted to the optimum concentration with the following buffer: 25 mM HEPES, pH 7.5, 0.01% Brij-35, 10 mM MgCl2, 0.01M Triton, adenosine triphosphate at Km. Add to the 384-well plate to initiate there action and react for 1 hour at 28° C.
(§4) 4. 1 Eq. of sulfuric acid solution was added to terminate the reaction, the conversion rate was read with Caliper Reader. The inhibition rate was calculated as the average of two tests.

JAK3 kinase = molecular target: T2, JAK3 kinase (Homo sapiens, UniProt P52333); assay: IC50 evaluation assay on JAK3 kinase inhibition (Caliper); conditions: adenosine triphosphate at Km; 1 hour at 28° C.; average of two tests; read-out: IC50 (nM) inhibiting JAK 3 kinase
T2 construct: purchased Carna 08-046
T2 sequence (P52333 1-1124): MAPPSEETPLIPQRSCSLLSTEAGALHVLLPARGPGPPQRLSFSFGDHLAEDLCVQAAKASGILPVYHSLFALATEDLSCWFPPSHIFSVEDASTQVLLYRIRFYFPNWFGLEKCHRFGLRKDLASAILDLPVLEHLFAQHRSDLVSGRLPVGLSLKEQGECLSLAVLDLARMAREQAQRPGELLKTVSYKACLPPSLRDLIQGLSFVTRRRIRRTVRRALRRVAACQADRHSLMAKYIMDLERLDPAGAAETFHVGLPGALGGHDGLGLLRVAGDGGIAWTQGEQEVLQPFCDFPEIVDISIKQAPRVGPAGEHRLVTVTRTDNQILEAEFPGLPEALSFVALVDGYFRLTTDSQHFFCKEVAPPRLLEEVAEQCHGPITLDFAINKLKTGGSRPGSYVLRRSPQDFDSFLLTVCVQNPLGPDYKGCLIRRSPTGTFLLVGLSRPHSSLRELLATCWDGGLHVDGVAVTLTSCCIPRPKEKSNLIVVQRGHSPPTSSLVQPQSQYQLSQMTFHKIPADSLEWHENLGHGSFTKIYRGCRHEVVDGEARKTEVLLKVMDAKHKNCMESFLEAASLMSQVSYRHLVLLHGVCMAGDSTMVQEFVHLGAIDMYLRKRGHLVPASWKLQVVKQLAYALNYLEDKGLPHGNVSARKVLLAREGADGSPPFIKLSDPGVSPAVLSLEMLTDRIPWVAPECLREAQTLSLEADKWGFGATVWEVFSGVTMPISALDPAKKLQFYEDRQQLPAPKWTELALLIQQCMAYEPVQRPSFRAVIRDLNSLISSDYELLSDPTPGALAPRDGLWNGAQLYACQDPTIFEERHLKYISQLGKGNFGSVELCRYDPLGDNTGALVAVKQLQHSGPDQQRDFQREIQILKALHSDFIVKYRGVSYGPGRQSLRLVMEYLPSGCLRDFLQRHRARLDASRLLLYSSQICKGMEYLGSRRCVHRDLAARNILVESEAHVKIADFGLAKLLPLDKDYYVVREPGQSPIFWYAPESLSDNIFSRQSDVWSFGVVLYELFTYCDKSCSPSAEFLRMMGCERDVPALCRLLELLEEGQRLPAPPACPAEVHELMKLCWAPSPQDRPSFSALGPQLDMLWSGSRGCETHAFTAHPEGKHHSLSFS
Description: as §1, §2, §3, §4

HCK kinase = molecular target: T3, HCK kinase (Homo sapiens, UniProt P08631); assay: IC50 evaluation assay of Src family kinase inhibition: HCK; conditions: 28° C.; average of two tests; read-out: IC50 (nM) inhibiting Src family kinase HCK
T3 construct: purchased BPS 40440
T3 sequence (P08631 whole entry): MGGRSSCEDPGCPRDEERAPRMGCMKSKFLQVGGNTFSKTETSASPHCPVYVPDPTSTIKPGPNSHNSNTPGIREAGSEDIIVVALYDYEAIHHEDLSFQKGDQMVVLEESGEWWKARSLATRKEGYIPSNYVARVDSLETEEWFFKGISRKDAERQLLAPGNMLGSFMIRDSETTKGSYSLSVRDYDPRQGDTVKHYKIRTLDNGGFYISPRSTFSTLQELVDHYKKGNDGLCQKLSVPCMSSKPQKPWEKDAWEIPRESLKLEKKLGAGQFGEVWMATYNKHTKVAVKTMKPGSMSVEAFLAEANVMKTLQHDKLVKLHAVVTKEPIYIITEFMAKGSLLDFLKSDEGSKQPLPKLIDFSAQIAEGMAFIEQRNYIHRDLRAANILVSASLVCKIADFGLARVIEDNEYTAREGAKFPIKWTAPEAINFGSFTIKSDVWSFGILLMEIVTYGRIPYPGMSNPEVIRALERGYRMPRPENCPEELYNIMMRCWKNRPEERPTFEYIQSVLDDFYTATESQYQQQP
Description: (§5) 1. The compound was dissolved in 100% DMSO, diluted into solutions with appropriate concentration gradients with water according to experimental requirement, and added to a 96-well plate.
(§6) 2. c-Src kinase (Carna, Cat. No. 08-173, Lot. No. 05CBS-1367), LYNαkinase (Carna, Cat. No. 08-171, Lot. No. 06CBS-3296D), FYN kinase (Carna, Cat. No. 08-068, Lot. No. 05CBS-1032), LCK kinase (Carna, Cat. No. 08-170, Lot. No. 07CBS-2482), HCK kinase (BPS, Cat. No. 40440, Lot. No. 1001), FGR kinase (Carna, Cat. No. 08-166, Lot. No. 05CBS-2781), YES kinase (Carna, Cat. No. 08-175, Lot. No. 06CBS-3247) were diluted to the optimum concentration with the following buffer solution: 50 mM HEPES, pH 7.5, 0.0015% Brij-35, 10 mM MgCl2, 2 mM DTT. Transfer to the 96-well plate and incubate with the compound at 28° C. for a period of time.
(§7) 3. The buffer solution (100 mM HEPES, pH 7.5, 0.0015% Brij-35, 0.2% Coating Reagent and […]) was added to terminate the reaction.
(§8) 4. The conversion rate was read with Caliper Reader. The inhibition rate was calculated as the average of two tests.

FGFR 3 = molecular target: T4, FGFR 3 (Homo sapiens, UniProt P22607); assay: IC50 evaluation assay of FGFR3 kinase inhibition (Caliper); conditions: 28° C.; average of two tests; read-out: IC50 (nM) inhibiting FGFR 3 kinase
T4 construct: purchased Carna 08-135
T4 sequence (P22607 23-806): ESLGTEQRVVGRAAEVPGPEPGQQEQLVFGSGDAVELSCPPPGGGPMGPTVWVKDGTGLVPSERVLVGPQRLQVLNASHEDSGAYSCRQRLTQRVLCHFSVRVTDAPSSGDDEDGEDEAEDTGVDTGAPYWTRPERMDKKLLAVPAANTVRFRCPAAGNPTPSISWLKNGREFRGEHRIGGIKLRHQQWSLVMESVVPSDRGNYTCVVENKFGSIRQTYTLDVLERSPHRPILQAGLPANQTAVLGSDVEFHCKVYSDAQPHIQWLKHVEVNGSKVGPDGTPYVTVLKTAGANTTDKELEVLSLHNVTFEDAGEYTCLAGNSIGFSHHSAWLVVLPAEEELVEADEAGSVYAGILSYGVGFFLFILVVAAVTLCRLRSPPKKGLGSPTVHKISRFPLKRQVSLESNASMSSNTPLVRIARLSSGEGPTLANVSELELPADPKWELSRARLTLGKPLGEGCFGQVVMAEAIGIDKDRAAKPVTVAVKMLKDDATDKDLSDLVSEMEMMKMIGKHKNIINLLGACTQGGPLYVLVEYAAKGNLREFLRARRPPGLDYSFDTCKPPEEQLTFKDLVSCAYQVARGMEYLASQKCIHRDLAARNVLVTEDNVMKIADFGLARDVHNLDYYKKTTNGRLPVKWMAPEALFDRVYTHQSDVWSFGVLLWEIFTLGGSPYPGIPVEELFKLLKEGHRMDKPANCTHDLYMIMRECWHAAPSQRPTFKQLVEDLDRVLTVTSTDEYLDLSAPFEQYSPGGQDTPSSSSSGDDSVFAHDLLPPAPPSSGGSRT

JAK1 kinase = molecular target: T5, JAK1 kinase (Homo sapiens, UniProt P23458); assay: IC50 evaluation assay on JAK1 kinase inhibition (Caliper); conditions: adenosine triphosphate at Km; 1 hour at 28° C.; average of two tests; read-out: IC50 (nM) inhibiting JAK 1 kinase
T5 construct: purchased Carna 08-144
T5 sequence (P23458 whole entry): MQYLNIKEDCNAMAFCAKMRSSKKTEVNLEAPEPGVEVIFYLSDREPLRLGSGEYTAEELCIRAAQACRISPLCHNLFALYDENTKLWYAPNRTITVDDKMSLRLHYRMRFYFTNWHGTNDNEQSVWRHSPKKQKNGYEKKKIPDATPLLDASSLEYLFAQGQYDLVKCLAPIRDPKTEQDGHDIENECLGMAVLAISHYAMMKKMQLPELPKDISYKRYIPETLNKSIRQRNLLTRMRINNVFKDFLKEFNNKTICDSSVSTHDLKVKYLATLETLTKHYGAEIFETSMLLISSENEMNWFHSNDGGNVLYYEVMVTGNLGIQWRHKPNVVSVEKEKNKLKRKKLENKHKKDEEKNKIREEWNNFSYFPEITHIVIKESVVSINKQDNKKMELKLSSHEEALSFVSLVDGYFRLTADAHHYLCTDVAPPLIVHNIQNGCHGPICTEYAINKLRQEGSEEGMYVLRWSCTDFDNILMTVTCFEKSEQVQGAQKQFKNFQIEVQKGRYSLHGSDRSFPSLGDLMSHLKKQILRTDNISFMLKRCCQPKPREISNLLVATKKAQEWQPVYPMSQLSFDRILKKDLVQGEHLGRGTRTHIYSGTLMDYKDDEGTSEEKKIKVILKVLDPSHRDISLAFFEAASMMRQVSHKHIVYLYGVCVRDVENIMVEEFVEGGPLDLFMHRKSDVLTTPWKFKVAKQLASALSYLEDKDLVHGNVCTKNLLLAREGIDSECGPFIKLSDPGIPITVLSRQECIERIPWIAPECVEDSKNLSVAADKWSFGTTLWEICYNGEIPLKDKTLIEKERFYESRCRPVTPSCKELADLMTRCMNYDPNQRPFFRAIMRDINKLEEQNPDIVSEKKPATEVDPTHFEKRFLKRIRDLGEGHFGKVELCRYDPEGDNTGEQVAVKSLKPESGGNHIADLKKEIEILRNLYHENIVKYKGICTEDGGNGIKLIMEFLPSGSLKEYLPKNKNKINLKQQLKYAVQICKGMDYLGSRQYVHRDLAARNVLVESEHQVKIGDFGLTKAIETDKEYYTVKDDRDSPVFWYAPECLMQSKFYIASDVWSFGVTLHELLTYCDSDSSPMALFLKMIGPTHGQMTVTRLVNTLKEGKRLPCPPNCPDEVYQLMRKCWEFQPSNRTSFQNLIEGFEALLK
Description: as §1, §2, §3, §4

LCK kinase = molecular target: T6, LCK kinase (Homo sapiens, UniProt P06239); assay: IC50 evaluation assay of Src family kinase inhibition: LCK; conditions: 28° C.; average of two tests; read-out: IC50 (nM) inhibiting Src family kinase LCK
T6 construct: purchased Carna 08-170
T6 sequence (P06239 whole entry): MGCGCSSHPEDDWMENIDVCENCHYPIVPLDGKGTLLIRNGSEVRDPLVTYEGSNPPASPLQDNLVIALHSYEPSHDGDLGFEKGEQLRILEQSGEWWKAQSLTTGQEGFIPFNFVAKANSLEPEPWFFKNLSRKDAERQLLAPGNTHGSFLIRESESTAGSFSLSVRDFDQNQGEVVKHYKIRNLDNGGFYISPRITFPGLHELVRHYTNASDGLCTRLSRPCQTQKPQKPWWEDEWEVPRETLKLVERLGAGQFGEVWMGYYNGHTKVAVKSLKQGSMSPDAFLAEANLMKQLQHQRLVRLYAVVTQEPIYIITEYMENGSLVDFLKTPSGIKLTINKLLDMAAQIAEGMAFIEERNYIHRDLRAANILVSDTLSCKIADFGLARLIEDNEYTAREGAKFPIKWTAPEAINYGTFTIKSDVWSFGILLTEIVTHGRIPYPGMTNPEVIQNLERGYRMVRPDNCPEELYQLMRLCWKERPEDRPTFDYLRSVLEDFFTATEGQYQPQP
Description: as §5, §6, §7, §8

Row | IC50 (JAK2 kinase) | IC50 (JAK3 kinase) | IC50 (HCK kinase) | IC50 (FGFR 3) | IC50 (JAK1 kinase) | IC50 (LCK kinase) | SMILES
1 | 0.71 nM | 1.1 nM | 27 nM | 15 nM | 5.6 nM | < 5 nM | COc1cc(F)ccc1-c1c(C)sc2cnc(Nc3cnn(C4CCN(CCO)CC4)c3)nc12 [Compound 34, 2-[4-(4-{[7-(4-fluoro-2-methoxyphenyl)-6-methylthieno[3,2-d]pyrimidinyl-2-yl]amino}-1H-pyrazol-1-yl)-piperidinyl-1-yl]-1-ethanol]
2 |  |  | 30 nM | 16 nM |  | 5.5 nM | COc1cc(F)ccc1-c1c(C)sc2cnc(Nc3cnn(C4CCNCC4)c3)nc12 [Compound 31, N-[7-(4-fluoro-2-methoxyphenyl)-6-methylthieno[3,2-d]pyrimidinyl-2-yl]-1-(piperidinyl-4-yl)-1H-pyrazol-4-amine]
